# Reference: patent US10125100B2, “Kinase inhibitors” (Respivert Limited, priority 2014, dated 2018)
# Where two headings read alike, the source gives them in different places.
# Tests used:
# [1] = biological target: c-Src (Homo sapiens (Human), UniProt P12931); experiment: c-Src enzyme inhibition, Z-LYTE FRET; type: biochemical
# Procedure, shortened: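 Z-LYTE FRET peptide phosphorylation read as donor coumarin over acceptor fluorescein ratio after 1 hr protease development. Compounds (1–0.001 μg/mL) preincubated 2 hr at RT with enzyme; ATP solutions 60 μM for Syk, 800 μM for c-Src; kinase reaction 1 hr.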
# [2] = biological target: B-Raf (Homo sapiens (Human), UniProt P15056); experiment: KINOMEscan binding of kinase to standard ligand; conditions: KINOMEscan technology
# B-Raf, sequence (P15056 whole entry): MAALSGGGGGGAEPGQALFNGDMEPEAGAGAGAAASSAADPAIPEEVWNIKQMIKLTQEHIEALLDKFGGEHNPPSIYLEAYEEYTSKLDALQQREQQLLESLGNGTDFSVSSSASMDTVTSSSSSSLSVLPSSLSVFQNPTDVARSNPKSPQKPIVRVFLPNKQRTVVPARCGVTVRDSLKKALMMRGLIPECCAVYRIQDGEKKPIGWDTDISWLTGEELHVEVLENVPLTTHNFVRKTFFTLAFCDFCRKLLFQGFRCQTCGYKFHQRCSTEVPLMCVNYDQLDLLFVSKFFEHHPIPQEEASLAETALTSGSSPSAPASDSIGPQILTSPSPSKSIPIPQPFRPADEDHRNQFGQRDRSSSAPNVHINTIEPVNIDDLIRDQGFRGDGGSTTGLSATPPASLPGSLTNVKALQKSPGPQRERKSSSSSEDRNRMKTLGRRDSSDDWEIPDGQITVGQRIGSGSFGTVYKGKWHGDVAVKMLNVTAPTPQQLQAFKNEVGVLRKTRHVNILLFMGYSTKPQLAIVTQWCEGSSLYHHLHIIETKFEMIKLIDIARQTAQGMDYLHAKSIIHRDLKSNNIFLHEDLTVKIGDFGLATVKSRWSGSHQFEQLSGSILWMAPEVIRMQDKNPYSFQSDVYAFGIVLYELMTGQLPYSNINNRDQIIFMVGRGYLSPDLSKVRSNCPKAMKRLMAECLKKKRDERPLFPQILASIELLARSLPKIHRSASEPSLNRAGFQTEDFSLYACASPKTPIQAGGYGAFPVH
# From the text: (§1) These assays may be conducted by DiscoverX (formerly Ambit; San Diego, Calif.).
# [3] = biological target: B-Raf (V600E) (Homo sapiens (Human), UniProt P15056, V600E); experiment: KINOMEscan binding of kinase to standard ligand; conditions: KINOMEscan technology
# B-Raf (V600E), sequence (P15056 whole entry V600E): as the sequence (P15056 whole entry) above, with V600E counted along it
# From the text: as §1
# [4] = biological target: p38 MAPKα (MAPK14) (Homo sapiens (Human), UniProt Q16539); experiment: p38 MAPKα enzyme inhibition (Method 2), Z-LYTE FRET; type: biochemical
# p38 MAPKα (MAPK14), sequence (Q16539 whole entry): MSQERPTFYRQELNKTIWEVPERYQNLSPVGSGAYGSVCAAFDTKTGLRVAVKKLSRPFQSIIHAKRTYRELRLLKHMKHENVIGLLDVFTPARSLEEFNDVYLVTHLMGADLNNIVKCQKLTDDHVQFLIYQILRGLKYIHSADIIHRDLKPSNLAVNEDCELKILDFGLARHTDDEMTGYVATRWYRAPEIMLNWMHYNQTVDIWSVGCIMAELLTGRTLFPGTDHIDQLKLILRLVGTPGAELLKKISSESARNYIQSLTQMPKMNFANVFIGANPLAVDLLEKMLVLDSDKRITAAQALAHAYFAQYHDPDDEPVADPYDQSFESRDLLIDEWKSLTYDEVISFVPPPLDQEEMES
# Procedure, shortened: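 Enzyme (200 ng/mL solution) was preincubated 2 h at RT with compound solutions of 1, 0.1, 0.01 or 0.001 μg/mL, and inhibition was read indirectly via MAPKAP-K2 activation/phosphorylation. After a 1 h RT reaction and 1 h protease development, phosphorylation was derived from the coumarin/fluorescein emission ratio.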
# [5] = Pharmacokinetics and total colon distribution after oral administration; type: in vivo; conditions: male, C57BL/6, mouse, mice, Ex. 36 measured after oral 5 mg/kg of Ex. 47 (Na salt)
# Description: Studies were conducted by Sai Life Sciences (Hinjewadi, Pune, India) to investigate the systemic pharmacokinetics and total colon tissue distribution of compounds of the invention. In particular, pharmacokinetic studies were carried out in male C57BL/6 mice following a single oral administration of the compound.
# [6] = tested on: non-mutant kinases; experiment: KinomeScan selectivity scores; type: binding; conditions: for number of individual kinase hits S(1): % Ctrl <1; for number of individual kinase hits S(10): % Ctrl <10; for number of individual kinase hits S(35): % Ctrl <35; for KinomeScan Selectivity Score S(1): non-mutant kinases with % Ctrl <1 / kinases tested; for KinomeScan Selectivity Score S(10): non-mutant kinases with % Ctrl <10 / kinases tested; for KinomeScan Selectivity Score S(35): non-mutant kinases with % Ctrl <35 / kinases tested
# From the text: as §1
# [7] = tested on: Jurkat cells; experiment: (r) Cell cytotoxicity assay; type: cell-based, human; conditions: 24 hours
# Procedure, shortened: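 Viability read by flow cytometry as the fraction of propidium iodide-negative cells (7.5 μg/mL PI, 15 min), relative to 1.0% DMSO control. Beforehand, 1×10^5 Jurkat cells in RPMI/10% FBS were treated 24 h at 37° C., 5% CO2 with test compound at final 20, 5 or 1 μg/mL.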
# [8] = biological target: Syk (Homo sapiens (Human), UniProt P43405); experiment: Syk enzyme inhibition, Z-LYTE FRET; type: biochemical
# Procedure, shortened: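 Syk or c-Src enzyme (3000 or 2000 ng/mL solutions) was preincubated 2 h at RT with compound solutions at 1, 0.1, 0.01 or 0.001 µg/mL. Z-LYTE FRET peptide (8 µM solution) and ATP (800 µM solution for c-Src, 60 µM for Syk) were then added for 1 h, followed by protease development for 1 h. Phosphorylation was read as the coumarin/fluorescein emission ratio.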
# [9] = total colon, read-out: total colon level
# [10] = whole blood, read-out: Mean blood concentration
# c-Src, sequence (P12931 whole entry, looked up): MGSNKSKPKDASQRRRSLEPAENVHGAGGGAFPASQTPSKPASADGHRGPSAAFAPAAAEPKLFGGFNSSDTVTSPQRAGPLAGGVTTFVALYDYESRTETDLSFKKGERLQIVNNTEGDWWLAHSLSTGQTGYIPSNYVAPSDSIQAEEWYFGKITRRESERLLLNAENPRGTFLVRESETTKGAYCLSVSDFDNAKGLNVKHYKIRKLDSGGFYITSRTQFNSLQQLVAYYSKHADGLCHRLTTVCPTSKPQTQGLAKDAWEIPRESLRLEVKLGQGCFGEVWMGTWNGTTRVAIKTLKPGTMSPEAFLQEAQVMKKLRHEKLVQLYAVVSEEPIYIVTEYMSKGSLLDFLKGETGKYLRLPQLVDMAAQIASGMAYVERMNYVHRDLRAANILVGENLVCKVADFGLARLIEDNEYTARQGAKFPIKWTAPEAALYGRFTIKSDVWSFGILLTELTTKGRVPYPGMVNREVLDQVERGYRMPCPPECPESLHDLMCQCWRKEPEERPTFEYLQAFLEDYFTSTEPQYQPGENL
smiles,measurement,setting,value
"COc1cc(Nc2cc(Oc3ccc(NC(=O)Nc4cc(C(C)(C)C)cc(NS(C)(=O)=O)c4OC)c4ccccc34)ccn2)cc(OC)c1C(=O)NCCOCCOCCO [Example 36, 4-((4-((4-(3-(5-(tert-butyl)-2-methoxy-3-(methylsulfonamido)phenyl)ureido)naphthalen-1-yl)oxy)pyridin-2-yl)amino)-N-(2-(2-(2-hydroxyethoxy)ethoxy)ethyl)-2,6-dimethoxybenzamide]",IC50,[1],0.01 µM
same,effect on the binding of B-Raf to its standard ligand,[2],did not have any significant effect
same,effect on the binding of B-Raf (V600E) to its standard ligand,[3],did not have any significant effect
same,IC50,[4],0.019 µM
same,concentration at 0.5 h,[5]; [9],37.8 ng/g
same,concentration at 1 h,[5]; [9],95.1 ng/g
same,concentration at 2 h,[5]; [9],643 ng/g
same,concentration at 4 h,[5]; [9],798 ng/g
same,concentration at 6 h,[5]; [9],380 ng/g
same,concentration at 8 h,[5]; [9],1070 ng/g
same,concentration at 12 h,[5]; [9],139 ng/g
same,concentration at 24 h,[5]; [9],0 ng/g
same,concentration at 0.5 h,[5]; [10],0 µg/mL
same,concentration at 1 h,[5]; [10],0 µg/mL
same,concentration at 2 h,[5]; [10],0 µg/mL
same,concentration at 4 h,[5]; [10],0 µg/mL
same,concentration at 6 h,[5]; [10],0 µg/mL
same,concentration at 8 h,[5]; [10],0 µg/mL
same,concentration at 12 h,[5]; [10],0 µg/mL
same,concentration at 24 h,[5]; [10],0 µg/mL
same,number of individual kinase hits S(1),[6]; 50 nM,1
same,number of individual kinase hits S(10),[6]; 50 nM,20
same,number of individual kinase hits S(35),[6]; 50 nM,60
same,KinomeScan Selectivity Score S(1),[6]; 50 nM,0.002
same,KinomeScan Selectivity Score S(10),[6]; 50 nM,0.050
same,KinomeScan Selectivity Score S(35),[6]; 50 nM,0.149
same,number of individual kinase hits S(1),[6]; 500 nM,32
same,number of individual kinase hits S(10),[6]; 500 nM,83
same,number of individual kinase hits S(35),[6]; 500 nM,120
same,KinomeScan Selectivity Score S(1),[6]; 500 nM,0.079
same,KinomeScan Selectivity Score S(10),[6]; 500 nM,0.206
same,KinomeScan Selectivity Score S(35),[6]; 500 nM,0.298
same,% Viability at 1 μg/mL,[7]; 1 μg/mL,93.3%
same,% Viability at 5 μg/mL,[7]; 5 μg/mL,89.3%
same,% Viability at 20 μg/mL,[7]; 20 μg/mL,84.9%
same,IC50,[8],0.19 µM
